Legend:
[1] = Physical storage stability of aqueous Ifosfamide concentrates with Mesna as solubility-enhancing agent; assay type: physicochemical; settings: Mesna as solubility-enhancing agent in Ifosfamide concentrates
Description: The ratios refer to the proportions by weight of the substances in the solution. The solutions are homogenized, sterilized by filtration and filled under aseptic conditions. Production is carried out under nitrogen. These solutions can also be lyophilized in order to obtain a longer storage life of the pharmaceutical preparation. In addition to the auxiliary agents that are set forth in the examples, the solution can contain also further substances, e.g. sodium chloride, Mannitol, lactose, polyethylenglycol, ethanol, glucose, disaccharide, cyclodextrine.
In the manufacture, 90% of the Water for Injection is cooled to about 5° C. to 10° C., to which is dissolved the phosphate buffer; the Mesna is subsequently added and is homogeneously dissolved. […] The solution so obtained is brought to the specified weight with the cooled Water for Injection, sterile-filtered and filled in injection vials under aseptic conditions. Sterilization and filling are not carried out under cooling.
The making of Examples 4, 5 and 6 is carried out analogously to the description of Example 1.

[2] = cited from earlier work

Row | physical stabilization of Ifosfamide solution [1] | Compound | solubility in water (saturation concentration) ([2]; water, room temperature) | solubility of Ifosfamide lowered by addition of auxiliary agents ([2]; with auxiliary agents added)
1 | prevents crystallization | O=S(=O)(O)CCS [Mesna, mercaptoethane sulfonate-sodium] |  | 
2 |  | O=P1(NCCCl)OCCCN1CCCl (stereo not drawn) [Ifosfamide, 2-(chlorethylamino)-3-(2-chlorethyl)-tetrahydro-2H-1,3,2-oxazaphosphorin-2-oxide] | about 140 mg/mL | under 10 % (wt/vol)
